Laboratory results published in ChEMBL document CHEMBL4270577, “Synthesis, anticancer activity and molecular modeling studies of 1,2,4-triazole derivatives as EGFR inhibitors” (Eur J Med Chem, 2018).

Columns and labels:
[1] = tested on: PANC-1; experiment: Antiproliferative activity against human PANC1 cells after 48 hrs by propidium iodide staining-based fluorometric analysis; type: functional, cell-based; conditions: PANC-1, 48 h
[2] = tested on: MIA PaCa-2; experiment: Antiproliferative activity against human MIAPaCa2 cells after 48 hrs by propidium iodide staining-based fluorometric analysis; type: functional, cell-based; conditions: MIA PaCa-2, 48 h
[3] = tested on: HT-29; experiment: Antiproliferative activity against human HT-29 cells after 48 hrs by propidium iodide staining-based fluorometric analysis; type: functional, cell-based; conditions: HT-29, 48 h
[4] = tested on: NCI-H460; experiment: Antiproliferative activity against human H460 cells after 48 hrs by propidium iodide staining-based fluorometric analysis; type: functional, cell-based; conditions: NCI-H460, 48 h
[5] = biological target: Epidermal growth factor receptor (Homo sapiens, UniProt P00533); experiment: Inhibition of His6-tagged recombinant EGFR cytoplasmic domain (645 to 1186 residues) (unknown origin) expressed in baculovirus infected Sf9 insect cells preincubated for 10 mins followed by ATP-MgCl2 addition and measured after 1 hr by DELFIA/time-resolved fluorometric analysis
[6] = tested on: A549; experiment: Induction of apoptosis in human A549 cells assessed as early apoptotic cells at 0.4 uM after 24 hrs by Annexin V/propidium iodide staining based flow cytometric analysis (reference value: 0.22%); type: functional
[7] = tested on: A549; experiment: Induction of apoptosis in human A549 cells assessed as late apoptotic cells at 0.4 uM after 24 hrs by Annexin V/propidium iodide staining based flow cytometric analysis (reference value: 0.08%); type: functional
[8] = tested on: A549; experiment: Induction of apoptosis in human A549 cells assessed as necrotic cells at 0.4 uM after 24 hrs by Annexin V/propidium iodide staining based flow cytometric analysis (reference value: 0.09%); type: functional
[9] = tested on: A549; experiment: Induction of apoptosis in human A549 cells assessed as viable cells at 0.4 uM after 24 hrs by Annexin V/propidium iodide staining based flow cytometric analysis (reference value: 98.03%); type: functional; conditions: A549, 24 h, read-out: Activity
[10] = tested on: A549; experiment: Cell cycle arrest in human A549 cells assessed as accumulation at G1 phase at 0.4 uM after 24 hrs by propidium iodide staining based flow cytometry (reference value: 67.52%); type: functional
[11] = tested on: A549; experiment: Cell cycle arrest in human A549 cells assessed as accumulation at G2 phase at 0.4 uM after 24 hrs by propidium iodide staining based flow cytometry (reference value: 4.19%); type: functional
[12] = tested on: A549; experiment: Cell cycle arrest in human A549 cells assessed as accumulation at S phase at 0.4 uM after 24 hrs by propidium iodide staining based flow cytometry (reference value: 27.9%); type: functional
[13] = tested on: CCRF-CEM; experiment: Growth inhibition of human CCRF-CEM cells at 10 uM incubated for 48 hrs by sulforhodamine B assay relative to control; type: functional; conditions: read-out: GI
[14] = tested on: HL-60(TB); experiment: Growth inhibition of human HL-60(TB) cells at 10 uM incubated for 48 hrs by sulforhodamine B assay relative to control; type: functional; conditions: HL-60, 48 h, read-out: GI
[15] = tested on: K562; experiment: Growth inhibition of human K562 cells at 10 uM incubated for 48 hrs by sulforhodamine B assay relative to control; type: functional; conditions: K562, 48 h, read-out: GI
[16] = tested on: MOLT-4; experiment: Growth inhibition of human MOLT4 cells at 10 uM incubated for 48 hrs by sulforhodamine B assay relative to control; type: functional; conditions: MOLT-4, 48 h, read-out: GI
[17] = tested on: RPMI-8226; experiment: Growth inhibition of human RPMI8226 cells at 10 uM incubated for 48 hrs by sulforhodamine B assay relative to control; type: functional; conditions: RPMI-8226, 48 h, read-out: GI
[18] = tested on: SR; experiment: Growth inhibition of human SR cells at 10 uM incubated for 48 hrs by sulforhodamine B assay relative to control; type: functional; conditions: read-out: GI
[19] = tested on: A549; experiment: Growth inhibition of human A549/ATCC cells at 10 uM incubated for 48 hrs by sulforhodamine B assay relative to control; type: functional; conditions: A549, 48 h, read-out: GI
[20] = tested on: HOP-62; experiment: Growth inhibition of human HOP62 cells at 10 uM incubated for 48 hrs by sulforhodamine B assay relative to control; type: functional; conditions: HOP-62, 48 h, read-out: GI
[21] = tested on: HOP-92; experiment: Growth inhibition of human HOP92 cells at 10 uM incubated for 48 hrs by sulforhodamine B assay relative to control; type: functional; conditions: HOP-92, 48 h, read-out: GI
[22] = tested on: NCI-H226; experiment: Growth inhibition of human NCI-H226 cells at 10 uM incubated for 48 hrs by sulforhodamine B assay relative to control; type: functional; conditions: NCI-H226, 48 h, read-out: GI
[23] = tested on: NCI-H23; experiment: Growth inhibition of human NCI-H23 cells at 10 uM incubated for 48 hrs by sulforhodamine B assay relative to control; type: functional; conditions: NCI-H23, 48 h, read-out: GI
[24] = tested on: NCI-H322M; experiment: Growth inhibition of human NCI-H322M cells at 10 uM incubated for 48 hrs by sulforhodamine B assay relative to control; type: functional; conditions: read-out: GI
[25] = tested on: NCI-H522; experiment: Growth inhibition of human NCI-H522 cells at 10 uM incubated for 48 hrs by sulforhodamine B assay relative to control; type: functional; conditions: NCI-H522, 48 h, read-out: GI
[26] = tested on: HT-29; experiment: Growth inhibition of human HT-29 cells at 10 uM incubated for 48 hrs by sulforhodamine B assay relative to control; type: functional; conditions: HT-29, 48 h, read-out: GI
[27] = tested on: KM12; experiment: Growth inhibition of human KM12 cells at 10 uM incubated for 48 hrs by sulforhodamine B assay relative to control; type: functional; conditions: KM12, 48 h, read-out: GI
[28] = tested on: SW-620; experiment: Growth inhibition of human SW620 cells at 10 uM incubated for 48 hrs by sulforhodamine B assay relative to control; type: functional; conditions: SW-620, 48 h, read-out: GI
[29] = tested on: SF-268; experiment: Growth inhibition of human SF268 cells at 10 uM incubated for 48 hrs by sulforhodamine B assay relative to control; type: functional; conditions: SF-268, 48 h, read-out: GI
[30] = tested on: SF-539; experiment: Growth inhibition of human SF539 cells at 10 uM incubated for 48 hrs by sulforhodamine B assay relative to control; type: functional; conditions: SF-539, 48 h, read-out: GI
[31] = tested on: SNB-75; experiment: Growth inhibition of human SNB75 cells at 10 uM incubated for 48 hrs by sulforhodamine B assay relative to control; type: functional; conditions: SNB-75, 48 h, read-out: GI
[32] = tested on: U-251; experiment: Growth inhibition of human U251 cells at 10 uM incubated for 48 hrs by sulforhodamine B assay relative to control; type: functional; conditions: U-251, 48 h, read-out: GI
[33] = tested on: Malme-3M; experiment: Growth inhibition of human MALME-3M cells at 10 uM incubated for 48 hrs by sulforhodamine B assay relative to control; type: functional; conditions: read-out: GI
[34] = tested on: MDA-MB-435; experiment: Growth inhibition of human MDA-MB-435 cells at 10 uM incubated for 48 hrs by sulforhodamine B assay relative to control; type: functional; conditions: MDA-MB-435, 48 h, read-out: GI
[35] = tested on: SK-MEL-2; experiment: Growth inhibition of human SK-MEL-2 cells at 10 uM incubated for 48 hrs by sulforhodamine B assay relative to control; type: functional; conditions: SK-MEL-2, 48 h, read-out: GI
[36] = tested on: SK-MEL-28; experiment: Growth inhibition of human SK-MEL-28 cells at 10 uM incubated for 48 hrs by sulforhodamine B assay relative to control; type: functional; conditions: SK-MEL-28, 48 h, read-out: GI
[37] = tested on: SK-MEL-5; experiment: Growth inhibition of human SK-MEL-5 cells at 10 uM incubated for 48 hrs by sulforhodamine B assay relative to control; type: functional; conditions: SK-MEL-5, 48 h, read-out: GI
[38] = tested on: UACC-257; experiment: Growth inhibition of human UACC257 cells at 10 uM incubated for 48 hrs by sulforhodamine B assay relative to control; type: functional; conditions: UACC-257, 48 h, read-out: GI
[39] = tested on: UACC-62; experiment: Growth inhibition of human UACC62 cells at 10 uM incubated for 48 hrs by sulforhodamine B assay relative to control; type: functional; conditions: UACC-62, 48 h, read-out: GI
[40] = tested on: OVCAR-8; experiment: Growth inhibition of human OVCAR8 cells at 10 uM incubated for 48 hrs by sulforhodamine B assay relative to control; type: functional; conditions: OVCAR-8, 48 h, read-out: GI
[41] = tested on: SK-OV-3; experiment: Growth inhibition of human SKOV3 cells at 10 uM incubated for 48 hrs by sulforhodamine B assay relative to control; type: functional; conditions: SK-OV-3, 48 h, read-out: GI
[42] = tested on: A498; experiment: Growth inhibition of human A498 cells at 10 uM incubated for 48 hrs by sulforhodamine B assay relative to control; type: functional; conditions: A498, 48 h, read-out: GI
[43] = tested on: SN12C; experiment: Growth inhibition of human SN12C cells at 10 uM incubated for 48 hrs by sulforhodamine B assay relative to control; type: functional; conditions: read-out: GI
[44] = tested on: TK-10; experiment: Growth inhibition of human TK10 cells at 10 uM incubated for 48 hrs by sulforhodamine B assay relative to control; type: functional; conditions: TK-10, 48 h, read-out: GI
[45] = tested on: UO-31; experiment: Growth inhibition of human UO31 cells at 10 uM incubated for 48 hrs by sulforhodamine B assay relative to control; type: functional; conditions: UO-31, 48 h, read-out: GI
[46] = tested on: PC-3; experiment: Growth inhibition of human PC3 cells at 10 uM incubated for 48 hrs by sulforhodamine B assay relative to control; type: functional; conditions: PC-3, 48 h, read-out: GI
[47] = tested on: MCF7; experiment: Growth inhibition of human MCF7 cells at 10 uM incubated for 48 hrs by sulforhodamine B assay relative to control; type: functional; conditions: MCF7, 48 h, read-out: GI
[48] = tested on: Hs-578T; experiment: Growth inhibition of human Hs 578T cells at 10 uM incubated for 48 hrs by sulforhodamine B assay relative to control; type: functional; conditions: read-out: GI
[49] = tested on: T47D; experiment: Growth inhibition of human T47D cells at 10 uM incubated for 48 hrs by sulforhodamine B assay relative to control; type: functional; conditions: read-out: GI

Chain of Epidermal growth factor receptor (P00533 whole entry, the tested form may be a part): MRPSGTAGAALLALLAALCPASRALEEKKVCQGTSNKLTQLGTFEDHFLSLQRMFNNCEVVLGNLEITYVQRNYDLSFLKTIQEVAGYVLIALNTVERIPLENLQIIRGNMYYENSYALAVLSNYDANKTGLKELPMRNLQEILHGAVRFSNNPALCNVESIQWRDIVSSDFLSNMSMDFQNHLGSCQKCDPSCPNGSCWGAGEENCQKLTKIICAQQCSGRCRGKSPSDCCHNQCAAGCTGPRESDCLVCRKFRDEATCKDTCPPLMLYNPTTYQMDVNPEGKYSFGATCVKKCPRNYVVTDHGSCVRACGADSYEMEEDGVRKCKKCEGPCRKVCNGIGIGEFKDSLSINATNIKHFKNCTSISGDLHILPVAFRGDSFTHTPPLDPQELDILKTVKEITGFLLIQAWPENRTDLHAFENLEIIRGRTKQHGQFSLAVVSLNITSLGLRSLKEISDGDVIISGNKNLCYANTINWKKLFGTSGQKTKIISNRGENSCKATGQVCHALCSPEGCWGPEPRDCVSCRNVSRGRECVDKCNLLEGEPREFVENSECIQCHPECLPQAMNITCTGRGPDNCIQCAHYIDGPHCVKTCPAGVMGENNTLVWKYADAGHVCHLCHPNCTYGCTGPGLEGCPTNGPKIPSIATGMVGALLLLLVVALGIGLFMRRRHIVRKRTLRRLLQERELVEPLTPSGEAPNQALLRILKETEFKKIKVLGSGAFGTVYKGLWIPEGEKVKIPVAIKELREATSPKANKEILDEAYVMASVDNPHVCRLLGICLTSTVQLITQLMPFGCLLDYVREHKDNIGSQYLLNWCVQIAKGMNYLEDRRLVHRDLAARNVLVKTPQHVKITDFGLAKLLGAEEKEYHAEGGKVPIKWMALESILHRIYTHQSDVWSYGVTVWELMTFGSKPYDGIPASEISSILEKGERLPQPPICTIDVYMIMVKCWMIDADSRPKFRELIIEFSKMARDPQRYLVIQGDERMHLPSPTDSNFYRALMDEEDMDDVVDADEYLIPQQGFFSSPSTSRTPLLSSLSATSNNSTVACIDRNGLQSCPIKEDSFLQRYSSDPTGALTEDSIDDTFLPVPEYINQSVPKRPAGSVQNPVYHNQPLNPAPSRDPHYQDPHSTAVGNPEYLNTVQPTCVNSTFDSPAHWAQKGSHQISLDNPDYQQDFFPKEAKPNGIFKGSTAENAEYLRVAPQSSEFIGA

Question: Which results are given for `COc1cc(-c2nc3sc(-c4ccc(Cl)cc4)cn3n2)cc(OC)c1OC`?
Answer: IC50 [1]: 3.5 µM; IC50 [2]: 3.9 µM; IC50 [3]: 3.5 µM; IC50 [4]: 3 µM; IC50 [5]: 1.7 µM; Activity [6]: 5.38%; Activity [7]: 7.65%; Activity [8]: 1.84%; viability at 0.4 µM [9]: 83.5%; Activity [10]: 49.52%; Activity [11]: 22.92%; Activity [12]: 12.69%

Question: Which results are given for `COc1cc(-c2nc(N)n(CC(=O)Nc3ccc(/C(C)=N\O)cc3)n2)cc(OC)c1OC`?
Answer: inhibition of growth at 10 µM [13]: 15.5%; inhibition of growth at 10 µM [14]: 8.41%; inhibition of growth at 10 µM [15]: 3.93%; inhibition of growth at 10 µM [16]: 8.41%; inhibition of growth at 10 µM [17]: 5.69%; inhibition of growth at 10 µM [18]: 17%; inhibition of growth at 10 µM [19]: 25.8%; inhibition of growth at 10 µM [20]: 5.54%; inhibition of growth at 10 µM [21]: 11.8%; inhibition of growth at 10 µM [22]: 5.19%; inhibition of growth at 10 µM [23]: 4.21%; inhibition of growth at 10 µM [24]: 5.82%; inhibition of growth at 10 µM [25]: 29.2%; inhibition of growth at 10 µM [26]: 13.6%; inhibition of growth at 10 µM [27]: 2.75%; inhibition of growth at 10 µM [28]: 4.8%; inhibition of growth at 10 µM [29]: 6.49%; inhibition of growth at 10 µM [30]: 2.92%; inhibition of growth at 10 µM [31]: 25.9%; inhibition of growth at 10 µM [32]: 14.2%; inhibition of growth at 10 µM [33]: 3.25%; inhibition of growth at 10 µM [34]: 18%; inhibition of growth at 10 µM [35]: 8%; inhibition of growth at 10 µM [36]: 5.76%; inhibition of growth at 10 µM [37]: 2.08%; inhibition of growth at 10 µM [38]: 36.3%; inhibition of growth at 10 µM [39]: 16.4%; inhibition of growth at 10 µM [40]: 25.7%; inhibition of growth at 10 µM [41]: 12.1%; inhibition of growth at 10 µM [42]: 11.2%; inhibition of growth at 10 µM [43]: 4%; inhibition of growth at 10 µM [44]: 9.11%; inhibition of growth at 10 µM [45]: 20.5%; inhibition of growth at 10 µM [46]: 23.3%; inhibition of growth at 10 µM [47]: 10.8%; inhibition of growth at 10 µM [48]: 17.9%; inhibition of growth at 10 µM [49]: 8.77%; IC50 [1]: 5.2 µM; IC50 [2]: 5.7 µM; IC50 [3]: 7.9 µM; IC50 [4]: 7.9 µM
